Patent US9850245B2 (Merck Sharp & Dohme Corp., priority 2014, dated 2017)
Structures can show the parent of a compound that is named as a salt.

Each compound was assayed against ROMK (Homo sapiens (Human), UniProt P48048) (assay: Thallium Flux Assay).
Assay type: cell-based
Experimental: A Thallium Flux Assay was performed on the compounds of the Examples. This assay has been described previously; see, e.g., PCT Published Application WO 2013/062900.

Sequence of ROMK (P48048 whole entry): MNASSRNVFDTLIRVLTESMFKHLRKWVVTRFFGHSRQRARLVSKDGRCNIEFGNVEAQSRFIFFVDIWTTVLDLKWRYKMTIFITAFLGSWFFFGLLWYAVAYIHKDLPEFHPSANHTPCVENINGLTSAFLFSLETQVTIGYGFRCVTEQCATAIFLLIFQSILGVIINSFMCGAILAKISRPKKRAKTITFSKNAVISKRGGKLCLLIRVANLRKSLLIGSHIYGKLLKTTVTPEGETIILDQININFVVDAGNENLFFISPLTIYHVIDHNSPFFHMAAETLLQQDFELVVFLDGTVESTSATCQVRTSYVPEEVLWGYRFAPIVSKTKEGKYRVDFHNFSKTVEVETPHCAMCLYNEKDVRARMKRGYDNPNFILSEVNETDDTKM

SMILES	IC50 [nM]
CC1=C(N2CCOC3(CCN(CC(O)c4cnc(-n5cnnn5)cn4)CC3)C2)COC1=O (single isomer, unassigned) [Example 48B, 4-(9-(2-(5-(1H-tetrazol-1-yl)pyrazin-2-yl)-2-hydroxyethyl)-1-oxa-4,9-diazaspiro[5.5]undecan-4-yl)-3-methylfuran-2(5H)-one]	245
CC1=C(N2CC3(CCN(CC(O)c4ccc(-n5cnnn5)nc4C)CC3)OCC2=O)COC1=O (single isomer, unassigned) [Example 60, 9-(2-hydroxy-2-(2-methyl-6-(1H-tetrazol-1-yl)pyridin-3-yl)ethyl)-4-(4-methyl-5-oxo-2,5-dihydrofuran-3-yl)-1-oxa-4,9-diazaspiro[5.5]undecan-3-one]	48.4
CC1=C(N2CCNC3(CCN(C[C@H](O)c4ccc5c(c4C)COC5=O)CC3)C2=O)COC1=O [Example 1, 9-[(2R)-2-hydroxy-2-(4-methyl-1-oxo-1,3-dihydro-2-benzofuran-5-yl)ethyl]-4-(4-methyl-5-oxo-2,5-dihydrofuran-3-yl)-1,4,9-triazaspiro[5.5]undecan-5-one dihydrochloride]	68.7
CC1=C(N2CCNC3(CCN(C[C@@H](O)c4ccc(-n5cnnn5)nc4)CC3)C2=O)COC1=O [Example 4B, (S)-9-(2-(6-(1H-tetrazol-1-yl)pyridin-3-yl)-2-hydroxyethyl)-4-(4-methyl-5-oxo-2,5-dihydrofuran-3-yl)-1,4,9-triazaspiro[5.5]undecan-5-one]	63.1
CC1=C(N2CC(F)(F)OC3(CCN(C[C@H](O)c4ccc(-n5cnnn5)nc4)CC3)C2)COC1=O [Example 7A, (R)-4-(9-(2-(6-(1H-tetrazol-1-yl)pyridin-3-yl)-2-hydroxyethyl)-2,2-difluoro-1-oxa-4,9-diazaspiro[5.5]undecan-4-yl)-3-methylfuran-2(5H)-one]	416
CC1=C(N2CC(F)(F)OC3(CCN(C[C@@H](O)c4ccc(-n5cnnn5)nc4)CC3)C2)COC1=O [Example 7B, (S)-4-(9-(2-(6-(1H-tetrazol-1-yl)pyridin-3-yl)-2-hydroxyethyl)-2,2-difluoro-1-oxa-4,9-diazaspiro[5.5]undecan-4-yl)-3-methylfuran-2(5H)-one]	688
CC1=C(N2CCOC3(CCN(C[C@@H](O)c4ccc5c(c4C)COC5=O)CC3)C2=O)COC1=O [Example 8B, (S)-9-(2-hydroxy-2-(4-methyl-1-oxo-1,3-dihydroisobenzofuran-5-yl)ethyl)-4-(4-methyl-5-oxo-2,5-dihydrofuran-3-yl)-1-oxa-4,9-diazaspiro[5.5]undecan-5-one]	89.9
O=C1C=C(N2CCOC3(CCN(C[C@H](O)c4ccc(-n5cnnn5)nc4)CC3)C2=O)CO1 [Example 12, (R)-9-(2-(6-(1H-tetrazol-1-yl)pyridin-3-yl)-2-hydroxyethyl)-4-(5-oxo-2,5-dihydrofuran-3-yl)-1-oxa-4,9-diazaspiro[5.5]undecan-5-one]	161
CC1=C(N2CCOC3(CCCN(C[C@@H](O)c4ccc(-n5cnnn5)nc4)CC3)C2=O)COC1=O (stereo partly drawn) [Example 15, 9-((S)-2-(6-(1H-tetrazol-1-yl)pyridin-3-yl)-2-hydroxyethyl)-4-(4-methyl-5-oxo-2,5-dihydrofuran-3-yl)-1-oxa-4,9-diazaspiro[5.6]dodecan-5-one]	280
Cc1c([C@@H](O)CN2CCC3(CC2)CN(C2=C(Cl)C(=O)OC2)CCO3)ccc2c1COC2=O [Example 23, (R)-5-(2-(4-(4-chloro-5-oxo-2,5-dihydrofuran-3-yl)-1-oxa-4,9-diazaspiro[5.5]undecan-9-yl)-1-hydroxyethyl)-4-methylisobenzofuran-1(3H)-one]	59.1
O=C1OCC(N2CCOC3(CCN(C[C@H](O)c4ccc(-n5cnnn5)nc4)CC3)C2)=C1Cl [Example 24A]	11.5
O=C1OCC(N2CCOC3(CCN(C[C@@H](O)c4ccc(-n5cnnn5)nc4)CC3)C2)=C1Cl [Example 24B]	34.5
O=C1C=C(N2CCC3(CCN(C[C@H](O)c4ccc(-n5cnnn5)nc4)CC3)OC2=O)CO1 [Example 26A, (R)-9-(2-(6-(1H-tetrazol-1-yl)pyridin-3-yl)-2-hydroxyethyl)-3-(5-oxo-2,5-dihydrofuran-3-yl)-1-oxa-3,9-diazaspiro[5.5]undecan-2-one]	171
O=C1OCC(N2CCOC3(CCN(C[C@H](O)c4ccc(-n5cnnn5)nc4)CC3)C2)=C1C1CC1 [Example 28A, (R)-4-(9-(2-(6-(1H-tetrazol-1-yl)pyridin-3-yl)-2-hydroxyethyl)-1-oxa-4,9-diazaspiro[5.5]undecan-4-yl)-3-cyclopropylfuran-2(5H)-one]	224
O=C1OCC(N2CCOC3(CCN(C[C@@H](O)c4ccc(-n5cnnn5)nc4)CC3)C2)=C1C1CC1 [Example 28B, (S)-4-(9-(2-(6-(1H-tetrazol-1-yl)pyridin-3-yl)-2-hydroxyethyl)-1-oxa-4,9-diazaspiro[5.5]undecan-4-yl)-3-cyclopropylfuran-2(5H)-one]	630
CC1=C(N2CCCOC3(CCN(C[C@H](O)c4ccc5c(c4C)COC5=O)CC3)C2=O)COC1=O [Example 37, (R)-3-(2-hydroxy-2-(4-methyl-1-oxo-1,3-dihydroisobenzofuran-5-yl)ethyl)-11-(4-methyl-5-oxo-2,5-dihydrofuran-3-yl)-7-oxa-3,11-diazaspiro[5.6]dodecan-12-one]	285
CC1=C(N2CCOC3(CC4CCC(C3)N4C[C@H](O)c3ccc4c(c3C)COC4=O)C2=O)COC1=O (stereo partly drawn) [Example 42, (1R,2′R,5S)-8-((R)-2-hydroxy-2-(4-methyl-1-oxo-1,3-dihydroisobenzofuran-5-yl)ethyl)-4′-(4-methyl-5-oxo-2,5-dihydrofuran-3-yl)-8-azaspiro[bicyclo[3.2.1]octane-3,2′-morpholin]-3′-one]	87.4
CC1=C(N2CCOC3(CC4CCC(C3)N4C[C@H](O)c3ccc(-n4cnnn4)nc3)C2=O)COC1=O (stereo partly drawn) [Example 47, (1R,2′R,5S)-8-((R)-2-(6-(1H-tetrazol-1-yl)pyridin-3-yl)-2-hydroxyethyl)-4′-(4-methyl-5-oxo-2,5-dihydrofuran-3-yl)-8-azaspiro[bicyclo[3.2.1]octane-3,2′-morpholin]-3′-one]	9.57
CC1=C(N2CCOC3(CCN(CCc4ccc5c(c4C)COC5=O)CC3)C2=O)COC1=O [Example 49, 9-(2-(4-methyl-1-oxo-1,3-dihydroisobenzofuran-5-yl)ethyl)-4-(4-methyl-5-oxo-2,5-dihydrofuran-3-yl)-1-oxa-4,9-diazaspiro[5.5]undecan-5-one]	52.4
CC1=C(N2CCOC3(CCN(CCc4cnc(-n5cnnn5)cn4)CC3)C2=O)COC1=O [Example 52, 9-(2-(5-(1H-tetrazol-1-yl)pyrazin-2-yl)ethyl)-4-(4-methyl-5-oxo-2,5-dihydrofuran-3-yl)-1-oxa-4,9-diazaspiro[5.5]undecan-5-one]	39.3
CC1=C(N2CCOC3(CCN(CCc4ccc(-n5cnnn5)nc4)CC3)C2=O)COC1=O [Example 53, 9-(2-(6-(1H-tetrazol-1-yl)pyridin-3-yl)ethyl)-4-(4-methyl-5-oxo-2,5-dihydrofuran-3-yl)-1-oxa-4,9-diazaspiro[5.5]undecan-5-one]	13.1
O=C1C=C(N2CCOC3(CC4CCC(C3)N4CCc3ccc(-n4cnnn4)nn3)C2=O)CO1 [Example 54, (1R,2′r,5S)-8-(2-(6-(1H-tetrazol-1-yl)pyridazin-3-yl)ethyl)-4′-(5-oxo-2,5-dihydrofuran-3-yl)-8-azaspiro[bicyclo[3.2.1]octane-3,2′-morpholin]-3′-one]	3.76
